Reference: patent US20170073337A1, “DIHYDROTHIAZINE AND DIHYDROOXAZINE DERIVATIVES HAVING BACE1 INHIBITORY ACTIVITY” (Shionogi & Co., Ltd., priority 2014, published 2017)

What was measured:
CYP2C9 = target: T1, CYP2C9 (Homo sapiens, UniProt P11712); assay: CYP inhibition test (CYP2C9); assay type: in vitro ADME; conditions: pooled human liver microsomes; tolbutamide methyl-hydroxylation
T1 construct: The commercially available pooled human liver microsomes are used as an enzyme resource; from tissue; host or cells: pooled human liver microsomes
T1 sequence (P11712 whole entry): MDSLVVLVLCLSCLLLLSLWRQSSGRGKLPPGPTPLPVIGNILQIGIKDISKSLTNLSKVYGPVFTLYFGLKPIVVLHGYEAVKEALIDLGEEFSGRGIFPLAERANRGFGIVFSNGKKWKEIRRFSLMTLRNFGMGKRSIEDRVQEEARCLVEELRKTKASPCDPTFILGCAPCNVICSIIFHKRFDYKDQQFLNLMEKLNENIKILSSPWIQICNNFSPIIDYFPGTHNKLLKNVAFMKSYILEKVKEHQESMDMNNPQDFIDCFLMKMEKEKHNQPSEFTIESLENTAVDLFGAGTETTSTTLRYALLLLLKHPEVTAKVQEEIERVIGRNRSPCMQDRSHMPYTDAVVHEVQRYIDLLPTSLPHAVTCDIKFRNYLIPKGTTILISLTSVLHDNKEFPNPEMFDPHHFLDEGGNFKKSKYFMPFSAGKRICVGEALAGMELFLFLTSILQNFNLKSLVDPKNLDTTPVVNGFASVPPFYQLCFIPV
In short: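 Pooled human liver microsomes (0.2 mg protein/mL) were incubated at 37 °C with NADPH, compound at 1, 5, 10, 20 μmol/L and marker substrates: tolbutamide 100 μmol/L (2C9), S-mephenytoin 50 μmol/L (2C19), dextromethorphan 5 μmol/L (2D6), terfenadine 1 μmol/L (3A4). Metabolites were measured by LC/MS/MS; IC50 came from logistic fitting against DMSO control.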

Recombinant human BACE1 = target: T2, Recombinant human BACE1 (Homo sapiens, UniProt P56817); assay: Assay of BACE1 inhibitory activity: 96-well; assay type: biochemical; conditions: Assay format 96-well
T2 construct: purchased R&D Systems
T2 sequence (P56817 46-501): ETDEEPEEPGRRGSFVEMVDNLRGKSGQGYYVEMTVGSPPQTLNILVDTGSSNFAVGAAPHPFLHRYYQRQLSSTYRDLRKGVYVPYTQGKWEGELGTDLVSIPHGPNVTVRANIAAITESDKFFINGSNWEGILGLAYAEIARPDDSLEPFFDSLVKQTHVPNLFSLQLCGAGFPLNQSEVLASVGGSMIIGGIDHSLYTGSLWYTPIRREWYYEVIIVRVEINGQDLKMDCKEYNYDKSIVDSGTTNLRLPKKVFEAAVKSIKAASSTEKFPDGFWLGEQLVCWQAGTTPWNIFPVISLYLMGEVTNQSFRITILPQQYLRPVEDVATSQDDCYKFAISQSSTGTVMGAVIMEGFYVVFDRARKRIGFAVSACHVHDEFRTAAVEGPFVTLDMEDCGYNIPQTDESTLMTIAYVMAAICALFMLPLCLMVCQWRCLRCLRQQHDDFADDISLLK
Experimental: 48.5 μL of substrate peptide solution (Biotin-XSEVNLDAEFRHDSGC-Eu: X=ε-amino-n-capronic acid. Eu=Europium cryplate) was added to each well of 96-hole half-area plate (a black plate: Costar), and after addition of 0.5 μl of the compound of the present invention (DMSO solution) and 1 μl of Recombinant human BACE1(R&D Systems), the reaction mixture was incubated at 30° C. for 3.5 hours. The substrate peptide was synthesized by reacting Cryptate TBPCOOH mono SMP (CIS bio international) with Biotin-XSEVNLDAEFRHDSGC (Peptide Institute, Inc.).
After the incubation for reaction, 50 μl of 8.0 μg/ml Streptavidin-XL665 (CIS bio international) dissolved in phosphate buffer (150 mmol/L […]—KH2PO4, pH 7.0, 0.008% Triton X-100, 0.8 mol/L KF) was added to each well and left stand at 30° C. for 45 minutes.

[1] = test system: Aβ production in neuroblastoma SH-SY5Y cells (SH/APPwt); assay: β-amyloid (Aβ) production inhibitory effect in cell: 96-well; assay type: cell-based; conditions: Homo sapiens, Assay format 96-well
Experimental: Neuroblastoma SH-SY5V cells (SH/APPwt) with human wild-type R-APP excessively expressed therein were prepared at 8×10^5 cells/mL, and 150 μl portions thereof were inoculated into each well of a 96-well culture plate (Falcon). The cells were cultured for 2 hours at […]. in a 5% gaseous carbon dioxide incubator. […] Namely, the final DMSO concentration was 1%, and the amount of the cell culture was 200 μl. After the incubation was performed for 24 hours from the addition of the test compound, 100 μl of the culture supernatant was collected from each fraction. The amount of the Aβ in each fraction was measured. The Aβ amount was measured as follows. 10 μl of a homogeneous time resolved fluorescence (HTRF) measurement reagent (Amyloid β1-40 peptide: CIS bio international) and 10 μof the culture supernatant were put into a 384-well half area microplate (black microplate, Costar) and mixed with each other, and then left standing overnight at 4° C. while the light was shielded.

SMILES | IC50 (CYP2C9) [µM] | IC50 (Recombinant human BACE1) [µM] | IC50 [1] [µM]
C[C@H]1SC(N)=N[C@](C)(c2nc(NC(=O)c3ccc(C#N)cn3)ccc2F)[C@H]1F [Compound I-1] | ≥ 20 | 0.0133 | 0.000504
C[C@H]1SC(N)=N[C@](C)(c2nc(NC(=O)c3ccc(F)cn3)ccc2F)[C@H]1F [Compound I-2] | ≥ 10 | 0.0679 | 0.00373
C[C@H]1SC(N)=N[C@](C)(c2nc(NC(=O)c3cnc(OCF)cn3)ccc2F)[C@H]1F [Compound I-3] | ≥ 10 | 0.0613 | 0.00359
C[C@]1(c2nc(NC(=O)c3ccc(C#N)cn3)ccc2F)N=C(N)S[C@H](CF)[C@@H]1F [Compound I-4] | ≥ 10 | 0.0115 | 0.000697
C[C@@]1(c2cc(NC(=O)c3ccc(C#N)cn3)ccc2F)C[C@@](C)(C(F)(F)F)OC(N)=N1 [Compound I-7] | – | 0.0475 | 0.00252
COc1cnc(C(=O)Nc2ccc(F)c([C@@]3(C)N=C(N)S[C@H](C)[C@@H]3F)c2)cn1 [Compound I-8] | – | 0.0118 | 0.00026
C[C@]1(c2cc(NC(=O)c3ccc(C#N)cn3)ccc2F)N=C(N)O[C@H](CF)[C@@H]1OCC(F)(F)F [Compound I-10] | ≥ 20 | 0.0258 | 0.000708
C[C@]1(c2cc(NC(=O)c3ccc(F)cn3)ccc2F)N=C(N)O[C@H](CF)[C@@H]1OCC(F)(F)F [Compound I-11] | ≥ 10 | 0.102 | 0.00421
C[C@]1(c2cc(NC(=O)c3cnc(OCF)cn3)ccc2F)N=C(N)O[C@H](CF)[C@@H]1OCC(F)(F)F [Compound I-12] | ≥ 20 | 0.0568 | 0.00188
C[C@H](F)[C@H]1OC(N)=N[C@](C)(c2cc(NC(=O)c3ccc(C#N)cn3)ccc2F)[C@H]1F [Compound I-13] | ≥ 20 | 0.032 | 0.00112
C[C@@H](F)[C@H]1OC(N)=N[C@](C)(c2cc(NC(=O)c3ccc(C#N)cn3)ccc2F)[C@H]1F [Compound I-15] | ≥ 20 | 0.0152 | 0.00065
COc1cnc(C(=O)Nc2ccc(F)c([C@@]3(C)N=C(N)O[C@H]([C@H](C)F)[C@@H]3F)c2)cn1 [Compound I-17] | ≥ 20 | 0.0597 | 0.00323
CO[C@H]1[C@@H](CF)OC(N)=N[C@]1(C)c1cc(NC(=O)c2ccc(C#N)cn2)ccc1Cl [Compound I-18] | ≥ 20 | 0.018 | 0.000573
CO[C@H]1[C@@H](CF)OC(N)=N[C@]1(C)c1cc(NC(=O)c2cnc(OCF)cn2)ccc1Cl [Compound I-19] | ≥ 20 | 0.0465 | 0.0012
CO[C@H]1[C@@H](CF)OC(N)=N[C@]1(C)c1cc(NC(=O)c2ccc(F)cn2)ccc1Cl [Compound I-20] | ≥ 20 | 0.0727 | 0.00419
CO[C@H]1[C@@H](CF)OC(N)=N[C@]1(C)c1cc(NC(=O)c2cnc(OCF)cn2)ccc1F [Compound I-24] | ≥ 20 | 0.097 | 0.00228
CO[C@H]1[C@@H](CF)OC(N)=N[C@]1(C)c1cc(NC(=O)c2ccc(F)cn2)ccc1F [Compound I-25] | ≥ 20 | 0.156 | 0.00431
C[C@@H]1[C@@H](C(F)(F)F)OC(N)=N[C@]1(C)c1cc(NC(=O)c2ccc(C#N)cn2)ccc1F [Compound I-27] | ≥ 20 | 0.0405 | 0.0067
C[C@H]1[C@@H](C(F)(F)F)OC(N)=N[C@]1(C)c1cc(NC(=O)c2ccc(C#N)cn2)ccc1F [Compound I-28] | ≥ 20 | 0.0226 | 0.0015
C[C@H]1[C@H](C(F)(F)F)OC(N)=N[C@]1(C)c1cc(NC(=O)c2ccc(C#N)cn2)ccc1F [Compound I-29] | ≥ 20 | 1.56 | 0.0935
C[C@H]1[C@@H](C(F)(F)F)OC(N)=N[C@]1(C)c1cc(NC(=O)c2cnc(OCF)cn2)ccc1F [Compound I-30] | ≥ 20 | 0.0521 | 0.00233
C[C@H]1[C@@H](C(F)F)OC(N)=N[C@]1(C)c1cc(NC(=O)c2ccc(C#N)cn2)ccc1F [Compound I-31] | ≥ 20 | 0.0223 | 0.000668
Cc1nc(C(=O)Nc2ccc(F)c([C@@]3(C)N=C(N)O[C@H](C(F)(F)F)[C@@H]3C)c2)co1 [Compound I-32] | ≥ 20 | 0.0436 | 0.00239
C[C@H]1[C@@H](C(F)F)OC(N)=N[C@]1(C)c1cc(NC(=O)c2cnc(OCF)cn2)ccc1F [Compound I-33] | ≥ 20 | 0.0492 | 0.00107
C[C@]1(c2cc(NC(=O)c3ccc(C#N)cn3)ccc2F)N=C(N)O[C@H]2[C@@H]1OCC2(F)F [Compound I-35] | ≥ 20 | 0.0131 | 0.000391
C[C@]1(c2cc(NC(=O)c3cnc(OCF)cn3)ccc2F)N=C(N)OCC12CC(F)(F)C2 [Compound I-44] | ≥ 20 | 0.0696 | 0.00211
C[C@]1(c2cc(NC(=O)c3ccc(F)cn3)ccc2F)N=C(N)OCC12CC(F)(F)C2 [Compound I-45] | ≥ 20 | 0.134 | 0.00571
